Assay results reported in patent US12692232B2, “Indole carboxamide compound, preparation therefor and use thereof” (NANJING RUISHUNING MEDICAL TECHNOLOGY CO., LTD., priority 2021, dated 2026).

Test system: rat model of pulmonary hypertension induced by monocrotaline
Experiment: Rat model of pulmonary hypertension induced by monocrotaline
Format: in vivo
Conditions: for reduction of TNF-α levels compared with the MCT model: 25 mg/kg; for RV/(LV + S): MCT model 0.45 ± 0.03; for TNF-α in lung tissue: MCT model 0.94 ± 0.07; for mPAP: MCT model 33.7 ± 4.3; for small pulmonary artery lesions compared with the model group (histopathology, H&E): treatment groups
Experimental: The preventive effect of the compounds of the present invention (as exemplified by compound 1-1 obtained in Example 1) on pulmonary hypertension was determined using a rat model of pulmonary hypertension induced by monocrotaline. The method was as follows:
Grouping of animals: 70 male SD rats with weigh of 200±20 g were randomly divided into 7 groups, i.e., a normal control group, a monocrotaline (MCT) model group, a treatment group of low-dose compound 1-1 (10 mg/kg) (MCT), a treatment group of medium-dose compound 1-1 (25 mg/kg) (MCT), a treatment group of high-dose compound 1-1 (50 mg/kg) (MCT), a treatment group of medium-dose indole analogue 3-[(1-methyl-1H-indole-2-carbonyl)amino]propionic acid (25 mg/kg) disclosed in CN2019107285315 (MCT), and a sildenafil group (150 mg/kg) (MCT), with 10 rats in each group.
Experimental procedure: MCT was prepared as a 2% solution with a mixture of ethanol and saline (2:8) and the solution was injected intraperitoneally once at a dose of 60 mg/kg body weight in all groups except the normal control group. Each rat in the normal control group was injected intraperitoneally once with a solution prepared from ethanol and saline in a volume ratio of 2:8. Compound 1-1 obtained in Example 1, the indole analogue 3-[(1-methyl-1H-indole-2-carbonyl)amino]propionic acid disclosed in CN2019107285315, or the positive drug sildenafil was administered by gavage to the mice in the treatment groups on the day of modelling, and saline was administered by gavage to the mice in the normal control group and the MCT model group. The drugs were administered by gavage once a day for 28 days until 12 hours before test.
Determination of hemodynamic indexes: a polyethylene plastic microcatheter filled with heparin solution (0.9% sodium chloride solution+10 U/mL heparin) was inserted into the right external jugular vein of a rat, and the other end of the microcatheter was connected to a miniature pressure transducer to monitor the pressure changes. […] After 30 minutes of stabilization, the POWERLAB multi-channel intelligent physiological signal acquisition and recording system was applied to acquire, record and analyze the indexes.
Determination of the index of right ventricular (RV) hypertrophy: at the end of the experiment, the heart was removed by dissection of the thorax and the atrial tissue was cut off. The right ventricle (RV), left ventricle (LV), and interventricular septum (S) were isolated along the edge of the interventricular septum, and the RV, LV, and S were weighed after absorbing water with filter paper and the ratio RV/(LV+S) was used to reflect the degree of RV hypertrophy.
Pathological examination of pulmonary vessels: tissue blocks were taken from the same site in the lower lobe of the right lung and fixed in 10% neutral formaldehyde (pH=7.4) for 2 days. Routine paraffin embedding, serial sections, H&E staining and light microscopy were performed to observe morphological changes in small pulmonary arteries.
Effect on inflammatory factors in lung tissue: Lung tissues were collected from each group of rats, homogenates of lung tissue were prepared and centrifuged and supernatants were collected. The protein level in the supernatant was determined by Coomassie brilliant blue method, and tumor necrosis factor-α (TNF-α) in rats was determined by an ELISA kit (Beijing 4A Biotech Co., Ltd.). […]

[1] = MCT + 25 mg/kg gavage once a day 28 days

SMILES: Cn1c(C(=O)NCCC(=O)O)cc2ccccc21 [3-[(1-methyl-1H-indole-2-carbonyl)amino]propionic acid, reference compound]
- reduction of TNF-α levels compared with the MCT model: 37.2%
- RV/(LV + S) (MCT + 25 mg/kg gavage 28 days): 0.38 ± 0.04
- TNF-α in lung tissue (MCT + 25 mg/kg gavage 28 days): 0.59 ± 0.07 g/g protein
- mPAP [1]: 28.9 ± 3.4 mmHg
- small pulmonary artery lesions compared with the model group (histopathology, H&E): significantly reduced

SMILES: CC(=O)OCCCNC(=O)c1c(C=O)c2ccccc2n1C [compound 1-1, propyl 3-[(3-formyl-1-methyl-1H-indole-2-carbonyl)amino]acetate]
- reduction of TNF-α levels compared with the MCT model: 58.5%
- RV/(LV + S) (MCT + 10 mg/kg gavage 28 days): 0.37 ± 0.04
- TNF-α in lung tissue (MCT + 10 mg/kg gavage 28 days): 0.65 ± 0.08 g/g protein
- mPAP (MCT + 10 mg/kg gavage once a day 28 days): 26.0 ± 2.8 mmHg
- RV/(LV + S) (MCT + 25 mg/kg gavage 28 days): 0.31 ± 0.04
- TNF-α in lung tissue (MCT + 25 mg/kg gavage 28 days): 0.39 ± 0.05 g/g protein
- mPAP [1]: 25.8 ± 2.5 mmHg
- RV/(LV + S) (MCT + 50 mg/kg gavage 28 days): 0.28 ± 0.03
- TNF-α in lung tissue (MCT + 50 mg/kg gavage 28 days): 0.34 ± 0.05 g/g protein
- mPAP (MCT + 50 mg/kg gavage once a day 28 days): 20.3 ± 3.0 mmHg
- small pulmonary artery lesions compared with the model group (histopathology, H&E): significantly reduced
